Measured values reported in US20220135591A1, “HETEROCYCLIC COMPOUNDS AS INHIBITORS OF MONOACYLGLYCEROL LIPASE (MAGL)” (Hoffmann-La Roche Inc., priority 2019, published 2022).

Each compound was assayed against T1, MAGL (recombinant wild-type) (Homo sapiens, UniProt Q99685) (assay: 4-NPA assay: MAGL inhibitory activity by hydrolysis of 4-nitrophenylacetate, absorbance at 405 nm). Details: 4-NPA assay (values without footnote [b]).
T1 sequence (Q99685 1-303): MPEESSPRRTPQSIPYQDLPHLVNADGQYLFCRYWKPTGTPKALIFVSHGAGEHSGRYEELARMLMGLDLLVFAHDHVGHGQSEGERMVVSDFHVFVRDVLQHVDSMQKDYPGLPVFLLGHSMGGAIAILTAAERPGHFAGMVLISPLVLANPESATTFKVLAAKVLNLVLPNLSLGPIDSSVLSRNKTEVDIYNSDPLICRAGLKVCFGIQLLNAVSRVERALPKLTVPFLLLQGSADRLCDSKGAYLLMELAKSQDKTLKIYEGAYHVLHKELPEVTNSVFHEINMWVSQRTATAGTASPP
Type: biochemical
Method in brief: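 Final assay: 1 nM MAGL and 300 μM 4-nitrophenylacetate in 50 mM Tris, 1 mM EDTA, at RT. Compounds (25 μM–1.7 nM, 3-fold steps) were preincubated 15 min with enzyme. A405 was read 5 min after substrate addition and again after 80 min; activity was taken as the difference between reads.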

Compound | IC50
Cc1ccc2oc(N3CCN(C(=O)c4ccc5nc(-c6ccccc6)oc5c4)CC3)nc2n1 [Example 1, (4-(5-Methyloxazolo[4,5-b]pyridin-2-yl)piperazin-1-yl)(2-phenylbenzo[d]oxazol-6-yl)methanone] | 115 nM
Cc1ccc2oc(N3CCN(C(=O)c4ccc(-c5cnn(CC(C)(C)C)c5)cc4)CC3)nc2n1 [Example 54, [4-[1-(2,2-dimethylpropyl)pyrazol-4-yl]phenyl]-[4-(5-methyloxazolo[4,5-b]pyridin-2-yl)piperazin-1-yl]methanone] | 6 nM
Cc1ccc2oc(N3CCN(C(=O)c4ccc(-c5nnc(C(C)(C)CF)o5)cc4)CC3)nc2n1 [Example 33, [4-[5-(2-fluoro-1,1-dimethyl-ethyl)-1,3,4-oxadiazol-2-yl]phenyl]-[4-(5-methyloxazolo[4,5-b]pyridin-2-yl)piperazin-1-yl]methanone] | 498 nM
CC(C)(C)n1cnc(-c2ccc(C(=O)N3CCN(c4nc5nc(Cl)ccc5o4)CC3)cc2)n1 [Example 41, [4-(1-tert-butyl-1,2,4-triazol-3-yl)phenyl]-[4-(5-chlorooxazolo[4,5-b]pyridin-2-yl)piperazin-1-yl]methanone] | 29 nM
Cc1ccc2oc(N3CCN(C(=O)c4cnc(OCC5(C(F)(F)F)CC5)c(C)c4)CC3)nc2n1 [Example 143, (5-methyl-6-((1-(trifluoromethyl)cyclopropyl)methoxy)pyridin-3-yl)(4-(5-methyloxazolo[4,5-b]pyridin-2-yl)piperazin-1-yl)methanone] | 77 nM
Cc1ccc2oc(N3CCN(C(=O)c4ccc(-c5noc(C(C)(C)C)n5)nc4)CC3)nc2n1 [Example 62, [6-(5-tert-butyl-1,2,4-oxadiazol-3-yl)-3-pyridyl]-[4-(5-methyloxazolo[4,5-b]pyridin-2-yl)piperazin-1-yl]methanone] | 871 nM
O=C(c1ccc(-c2noc(C3(CF)CC3)n2)cc1)N1CCN(c2nc3nc(Cl)ccc3o2)CC1 [Example 37, [4-(5-chlorooxazolo[4,5-b]pyridin-2-yl)piperazin-1-yl]-[4-[5-[1-(fluoromethyl)cyclopropyl]-1,2,4-oxadiazol-3-yl]phenyl]methanone] | 101 nM
CC(=O)N1CCN(c2cc(Cl)cc(C(=O)N3CCN(c4nc5nc(C)ccc5o4)CC3)c2)CC1 [Example 176, 1-[4-[3-chloro-5-[4-(5-methyl-[1,3]oxazolo[4,5-b]pyridin-2-yl)piperazine-1-carbonyl]phenyl]piperazin-1-yl]ethanone] | 4150 nM
Cc1cc(C(=O)N2CCN(c3nc4nc(Cl)ccc4o3)CC2)ccc1OCC(C)(C)C [Example 64, [4-(5-chlorooxazolo[4,5-b]pyridin-2-yl)piperazin-1-yl]-[4-(2,2-dimethylpropoxy)-3-methyl-phenyl]methanone] | 5 nM
Cc1ccc2oc(N3CCN(C(=O)c4ccc(OCC5(C)CC5)c(Cl)c4)CC3)nc2n1 [Example 66, [3-chloro-4-[(1-methylcyclopropyl)methoxy]phenyl]-[4-(5-methyloxazolo[4,5-b]pyridin-2-yl)piperazin-1-yl]methanone] | 87 nM
Cc1ccc2oc(N3CCN(C(=O)c4ccc(-c5ncn(C(C)(C)C)n5)cc4)CC3)nc2n1 [Example 42, [4-(1-tert-butyl-1,2,4-triazol-3-yl)phenyl]-[4-(5-methyloxazolo[4,5-b]pyridin-2-yl)piperazin-1-yl]methanone] | 86 nM
Cc1ccc2oc(N3CCN(C(=O)c4ccc(-c5noc(C6(F)CC6)n5)cc4)CC3)nc2n1 [Example 35, [4-[5-(1-fluorocyclopropyl)-1,2,4-oxadiazol-3-yl]phenyl]-[4-(5-methyloxazolo[4,5-b]pyridin-2-yl)piperazin-1-yl]methanone] | 369 nM
O=C(c1ccc(-c2noc(C3(F)CC3)n2)cc1)N1CCN(c2nc3nc(Cl)ccc3o2)CC1 [Example 26, [4-(5-chlorooxazolo[4,5-b]pyridin-2-yl)piperazin-1-yl]-[4-[5-(1-fluorocyclopropyl)-1,2,4-oxadiazol-3-yl]phenyl]methanone] | 206 nM
CC(C)(C)c1ncn(-c2ccc(C(=O)N3CCN(c4nc5nc(Cl)ccc5o4)CC3)cc2)n1 [Example 72, [4-(3-tert-butyl-1,2,4-triazol-1-yl)phenyl]-[4-(5-chlorooxazolo[4,5-b]pyridin-2-yl)piperazin-1-yl]methanone] | 27 nM
CC(C)(C)n1cc(-c2ccc(C(=O)N3CCN(c4nc5nc(Cl)ccc5o4)CC3)cc2)cn1 [Example 48, [4-(1-tert-butylpyrazol-4-yl)phenyl]-[4-(5-chlorooxazolo[4,5-b]pyridin-2-yl)piperazin-1-yl]methanone] | 15 nM

Now from value to compound:

IC50 | Compound
15 nM | Cc1ccc2oc(N3CCN(C(=O)c4ccc(N5CC(O[C@@H](C)C(F)(F)F)C5)cc4)CC3)nc2n1 [Example 200, (S)-(4-(5-methyloxazolo[4,5-b]pyridin-2-yl)piperazin-1-yl)(4-(3-((1,1,1-trifluoropropan-2-yl)oxy)azetidin-1-yl)phenyl)methanone]
180 nM | Cc1ccc2oc(N3CCN(C(=O)c4cc(Cl)cc(-c5ccc(CO)cc5)c4)CC3)nc2n1 [Example 181, [3-chloro-5-[4-(hydroxymethyl)phenyl]phenyl]-[4-(5-methyl-[1,3]oxazolo[4,5-b]pyridin-2-yl)piperazin-1-yl]methanone]
625 nM | Cc1ccc2oc(N3CCN(C(=O)c4ccc(OCc5cccc(Cl)c5)c(-c5ncc[nH]5)c4)CC3)nc2n1 [Example 199, [4-[(3-chlorophenyl)methoxy]-3-(1H-imidazol-2-yl)phenyl]-[4-(5-methyl-[1,3]oxazolo[4,5-b]pyridin-2-yl)piperazin-1-yl]methanone]
99 nM | Cc1ccc2oc(N3CCN(C(=O)c4ccc(N5CC(OC(C)C(F)(F)F)C5)cc4Cl)CC3)nc2n1 (centres unmarked) [Example 213, (2-chloro-4-(3-((1,1,1-trifluoropropan-2-yl)oxy)azetidin-1-yl)phenyl)(4-(5-methyloxazolo[4,5-b]pyridin-2-yl)piperazin-1-yl)methanone]
40 nM | CC(C)(C)Cc1nc(-c2ccc(C(=O)N3CCN(c4nc5nc(C(F)(F)F)ccc5o4)CC3)cc2)no1 [Example 261, (4-(5-neopentyl-1,2,4-oxadiazol-3-yl)phenyl)(4-(5-(trifluoromethyl)oxazolo[4,5-b]pyridin-2-yl)piperazin-1-yl)methanone]
301 nM | CC(C)(C)Cc1nc(-c2ccc(C(=O)N3CCN(c4nc5nc(C#N)ccc5o4)CC3)cc2)no1 [Example 260, 2-(4-(4-(5-neopentyl-1,2,4-oxadiazol-3-yl)benzoyl)piperazin-1-yl)oxazolo[4,5-b]pyridine-5-carbonitrile]
12 nM | Cc1ccc2oc(N3CCN(C(=O)c4ccc(-c5noc(CC(C)(C)C)n5)c(-c5ccc(CO)cc5)c4)CC3)nc2n1 [Example 186, [4-[5-(2,2-dimethylpropyl)-1,2,4-oxadiazol-3-yl]-3-[4-(hydroxymethyl)phenyl]phenyl]-[4-(5-methyl-[1,3]oxazolo[4,5-b]pyridin-2-yl)piperazin-1-yl]methanone]
4120 nM | O=C(c1ccc(N2CC3(CCCO3)C2)cc1)N1CCN(c2nc3ncccc3o2)CC1 [Example 192, (4-(5-oxa-2-azaspiro[3.4]octan-2-yl)phenyl)(4-(oxazolo[4,5-b]pyridin-2-yl)piperazin-1-yl)methanone]
